Assay [1] has as its system cardiomyocytes differentiated from hiPSC's. The experiment in a line: Etoposide sensitivity assay during cardiomyocyte differentiation of hiPSC's. It is filed as cell-based, human. To be noted: mature, beating cardiomyocytes (Day 9).
Assay [2] has as its system human induced pluripotent stem cells. The experiment in a line: Etoposide sensitivity assay (ESA), Annexin V/PI flow cytometry. Format: cell-based. To be noted: for EC50: Homo sapiens, 24 h. On the procedure:
An assay for assessing pluripotency or for releasing a stem cell population for clinical diagnostic or therapeutic use can include obtaining a series of cell samples from the population being assessed. Each of these samples can be contacted with an increasing concentration of one or more DNA damaging agent(s). Any appropriate length of time can be used for the incubation period. For example, the cells can be incubated as 37° C. for between about 30 minutes and about 48 hours (e.g., between about 30 minutes and about 36 hours, between about 30 minutes and about 24 hours, or between about 1 hour and about 24 hours). After this contacting step, the cells can be evaluated using, for example, flow cytometry to determine how susceptible the cells are to apoptosis. In some cases, flow cytometry can be carried out as follows. Briefly, pluripotent stem cells can be seeded in plates (e.g., 24 well plates) and treated with etoposide (Sigma-Aldrich) or DMSO for a period of time (e.g., about 24 hours) at, for example, about 50% confluence. Media and cells can be stained with Annexin V FITC/PI and analyzed via flow cytometry (e.g., via a Gallios (Beckman Coulter) flow cytometer). Data analysis can be performed using Kaluza (Beckman Coulter) software and normalized by dividing the triplicate means (viable non-staining cells) by the corresponding DMSO control. Human pluripotent stem cell clones were assessed for etoposide sensitivity as follows. Mechanically processed hiPSC's were seeded onto a 24-well plate (1×60 mm dish: 1×24-well plate), maintained for 3-5 days, and subsequently treated with etoposide (1, 10, 50, 100, 250, 500, and 1,000 nM, all performed in triplicate wells) or vehicle control (DMSO) for 24 hours. Conditioned media was collected into appropriately labeled 12×75 mm flow tubes, and 200 μL of TryPLE was added to each well. Following a brief incubation at 37° C. (5-10 minutes), 1 mL of pre-warmed (37° C.) FAC's buffer (4 mM EDTA, 0.5% FBS, 1×DPBS pH 7.4 w/o Ca^2+, Mg^2+) was added to each well. The total well contents were transferred to their corresponding conditioned media tubes, and all tubes were spun down at 400×G for 5 minutes. Tubes were washed 1× with ice-cold Annexin Binding Buffer (ABB, 10 mM HEPES, 2.5 mM CaCl2, 140 mM NaCl, pH 7.4) and stained with Annexin-FITC (BD 556420, 5 μL in 100 μL total ABB per tube) for 30 minutes on ice while protected from light. All tubes were washed 1× in ABB, and the resulting cell pellets were resuspended in 400 μL of ABB supplemented with 1 μL of 1 mg/mL propidium iodide (Sigma-Aldrich, P4864). Samples were immediately assayed by flow cytometry (Gallios, Beckman Coulter), and data were subsequently analyzed for percent viability using Kaluza software (Beckman Coulter).

Each structure is given as a SMILES string.

With `COc1cc([C@@H]2c3cc4c(cc3[C@@H](O[C@@H]3O[C@@H]5CO[C@@H](C)O[C@H]5[C@H](O)[C@H]3O)[C@H]3COC(=O)[C@H]23)OCO4)cc(OC)c1O` [etoposide], the sensitivity to etoposide entry was “near complete lack of sensitivity” in assay [1]; “greatest sensitivity” in assay [2] (hiPSC lines RT 4.1 and RT 6.21 compared with other hiPSC lines, 24 hours). Moreover, the EC50 in assay [2] (cleaned (C) hiPSC cultures after removal of poor quality clones/cells, 24 hours) was below 300 nM; in assay [2] (poor quality clones/cells from unclean (UC) hiPSC cultures, feeder free), above 300 nM. Besides, the etoposide sensitivity entry in assay [2] (Sendai virus derived hiPSC clones compared to lentivirus reprogrammed clones, 126 clones) is listed as “significant decrease in etoposide sensitivity”; in assay [2] (hiPSC clones of poor quality and cellular differentiation, feeder free conditions), “reduced or negligible etoposide sensitivity”.

Source of the values: patent US20160109432A1, “METHODS AND MATERIALS FOR ASSESSING PLURIPOTENCY OF STEM CELL POPULATIONS” (Mayo Foundation for Medical Education and Research, priority 2014, published 2016).
